# Source: patent US20240101540A1, “TARGETED PROTEIN DEGRADATION OF PARP14 FOR USE IN THERAPY” (Ribon Therapeutics, Inc., priority 2022, published 2024)
# Counter-ions that a name gives are not always drawn.
# Target: T1, HiBiT tagged PARP14 (Homo sapiens, UniProt Q460N5)
# T1 construct: engineered to contain a HiBiT tag on both alleles of the PARP14 gene; endogenous in cells; host or cells: Jurkat cells stably transfected with LgBiT (Promega), PARP14 locus edited by CRISPR/Cas9
# Test: HiBiT assay for the degradation of PARP14 (HiBiT tagged PARP14 in LgBiT expressing Jurkat cells, 2 or 24 hours)
# Assay type: cell-based
# Details: Assay B (Example B): HiBiT tagged PARP14 degradation in LgBiT expressing Jurkat cells, read-out: DC50
# Description: Jurkat cells stably transfected with LgBiT (Promega) were engineered to contain a HiBiT tag on both alleles of the PARP14 gene (Genbank Accession Number: NM_017554) via CRISPR/Cas9 editing. The HiBiT tag is an 11 amino acid tag created by Promega that associates with LgBiT protein to form the NanoLuc® tag on the C-terminus of PARP14. Clones were isolated and confirmed for the HiBiT tag via Sanger sequencing.
# Degradation of PARP14 protein was assessed by measuring the luminescence of the HiBiT tag associating with the LgBiT protein as a proxy for the PARP14 protein.
# Jurkat cells were diluted to 250,000 cells per mL and then added to assay plate (Corning 3574) using a Multidrop (Thermo Fisher) to add 20 μL per well of the 384 well plate, resulting in 5,000 cells per well. 20 nL of a dose response curve diluted in DMSO of each test compound was added to the cell plate using a Mosquito (TTP Labtech) and the plate was incubated at 37° C. for 2 or 24 hours. Assay plate was brought to room temperature then 5 μL per well of Live Cell Substrate (Promega) was added to the plate. Luminescence was measured on an Envision (Perkin Elmer).
# The average DMSO was calculated from 32 wells containing 0.1% DMSO only in columns 12 and 24 of the assay plate. The % of DMSO values were calculated as described below: […]
# The % of DMSO values were plotted as a function of compound concentration and the following 4-parameter fit was applied to derive the DC50 values:
# where top, bottom, and Hill Coefficient are allowed to float. Y is the % of DMSO and X is the compound concentration.
# DC50 data for the Example compounds is provided below in Table 2 (“+” is ≤0.03 μM; “++” is ≥0.03 μM).
# T1 sequence (Q460N5 whole entry): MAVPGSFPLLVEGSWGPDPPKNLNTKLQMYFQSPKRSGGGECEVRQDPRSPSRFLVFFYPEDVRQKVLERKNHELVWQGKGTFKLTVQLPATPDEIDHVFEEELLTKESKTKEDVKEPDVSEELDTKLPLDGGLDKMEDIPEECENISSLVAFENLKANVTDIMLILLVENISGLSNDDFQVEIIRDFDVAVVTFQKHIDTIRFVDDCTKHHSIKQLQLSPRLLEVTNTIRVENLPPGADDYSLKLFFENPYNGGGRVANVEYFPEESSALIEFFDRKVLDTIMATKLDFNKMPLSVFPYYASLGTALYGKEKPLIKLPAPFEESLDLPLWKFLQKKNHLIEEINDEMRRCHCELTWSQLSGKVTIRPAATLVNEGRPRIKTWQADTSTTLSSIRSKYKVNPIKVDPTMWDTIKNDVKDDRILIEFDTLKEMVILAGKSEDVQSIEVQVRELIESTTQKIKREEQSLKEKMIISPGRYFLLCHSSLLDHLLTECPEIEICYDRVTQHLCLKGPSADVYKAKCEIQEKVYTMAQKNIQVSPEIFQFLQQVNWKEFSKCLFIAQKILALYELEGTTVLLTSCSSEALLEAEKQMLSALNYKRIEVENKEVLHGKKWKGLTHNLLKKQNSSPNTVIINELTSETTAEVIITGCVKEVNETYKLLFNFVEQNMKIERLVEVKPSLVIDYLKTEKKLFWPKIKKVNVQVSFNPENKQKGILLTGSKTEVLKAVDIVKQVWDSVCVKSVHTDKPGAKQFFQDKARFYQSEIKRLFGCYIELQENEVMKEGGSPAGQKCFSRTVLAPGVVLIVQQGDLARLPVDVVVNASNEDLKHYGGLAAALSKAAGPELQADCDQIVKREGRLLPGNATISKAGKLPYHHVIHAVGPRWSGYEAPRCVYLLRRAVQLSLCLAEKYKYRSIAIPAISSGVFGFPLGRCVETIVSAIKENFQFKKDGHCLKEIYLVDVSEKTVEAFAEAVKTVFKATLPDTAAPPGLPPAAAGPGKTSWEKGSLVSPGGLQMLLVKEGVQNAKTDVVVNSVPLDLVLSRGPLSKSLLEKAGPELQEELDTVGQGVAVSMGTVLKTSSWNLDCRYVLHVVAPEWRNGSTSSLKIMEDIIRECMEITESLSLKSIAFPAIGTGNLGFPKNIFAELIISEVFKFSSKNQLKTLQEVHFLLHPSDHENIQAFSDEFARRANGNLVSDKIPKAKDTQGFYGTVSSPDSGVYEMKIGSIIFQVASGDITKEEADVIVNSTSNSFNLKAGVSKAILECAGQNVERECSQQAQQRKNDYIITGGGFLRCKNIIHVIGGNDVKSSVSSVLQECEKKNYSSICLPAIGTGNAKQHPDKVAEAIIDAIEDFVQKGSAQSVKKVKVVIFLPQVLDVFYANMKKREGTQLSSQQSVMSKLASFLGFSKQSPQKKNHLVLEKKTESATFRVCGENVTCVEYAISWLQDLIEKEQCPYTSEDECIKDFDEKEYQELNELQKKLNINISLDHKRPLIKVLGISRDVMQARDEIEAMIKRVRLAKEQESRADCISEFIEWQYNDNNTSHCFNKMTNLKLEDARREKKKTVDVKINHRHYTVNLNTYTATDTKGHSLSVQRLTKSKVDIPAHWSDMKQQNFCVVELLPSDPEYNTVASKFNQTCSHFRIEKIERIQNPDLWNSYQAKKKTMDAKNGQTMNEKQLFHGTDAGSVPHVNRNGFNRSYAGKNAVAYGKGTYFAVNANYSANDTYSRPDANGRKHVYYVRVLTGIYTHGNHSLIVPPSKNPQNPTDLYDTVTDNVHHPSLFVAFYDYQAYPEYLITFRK
row,DC50 [nM],Structure (SMILES)
1,< 30,"O=C1CCC(Nc2ccc(N3CCC(N4CCC(COc5cc(F)c6c(=O)[nH]c(COC7CCOCC7)nc6c5)CC4)CC3)c(F)c2)C(=O)N1 (centres unmarked) [Example 135, 3-((3-fluoro-4-(4-(((5-fluoro-4-oxo-2-(((tetrahydro-2H-pyran-4-yl)oxy)methyl)-3,4-dihydroquinazolin-7-yl)oxy)methyl)-[1,4′-bipiperidin]-1′-yl)phenyl)amino)piperidine-2,6-dione formate]"
2,< 30,"O=C1CCC(Nc2ccc(N3CCC(N4CC(N5CCC(COc6cc(F)c7c(=O)[nH]c(COC8CCOCC8)nc7c6)CC5)C4)CC3)c(F)c2)C(=O)N1 (centres unmarked) [Example 136, 3-((3-fluoro-4-(4-(3-(4-(((5-fluoro-4-oxo-2-(((tetrahydro-2H-pyran-4-yl)oxy)methyl)-3,4-dihydroquinazolin-7-yl)oxy)methyl)piperidin-1-yl)azetidin-1-yl)piperidin-1-yl)phenyl)amino)piperidine-2,6-dione]"
3,< 30,O=C1CCC(Nc2ccc(N3CCC(N4CC(N5CCC(COc6cc(F)c7c(=O)[nH]c(CSC8CCOCC8)nc7c6)CC5)C4)CC3)c(Cl)c2)C(=O)N1 (centres unmarked) [Example 142]
4,< 30,"O=C1CCC(Nc2ccc(N3CCC4(CC3)CC(N3CCC(COc5cc(F)c6c(=O)[nH]c(CSC7CCOCC7)nc6c5)CC3)C4)c(F)c2)C(=O)N1 (centres unmarked) [Example 143, 3-((3-fluoro-4-(2-(4-(((5-fluoro-4-oxo-2-(((tetrahydro-2H-pyran-4-yl)thio)methyl)-3,4-dihydroquinazolin-7-yl)oxy)methyl)piperidin-1-yl)-7-azaspiro[3.5]nonan-7-yl)phenyl)amino)piperidine-2,6-dione]"
5,< 30,"O=C1CCC(Nc2ccc(N3CCC(CN4CCC(COc5cc(F)c6c(=O)[nH]c(CSC7CCOCC7)nc6c5)CC4)CC3)c(F)c2)C(=O)N1 (centres unmarked) [Example 144, 3-((3-fluoro-4-(4-((4-(((5-fluoro-4-oxo-2-(((tetrahydro-2H-pyran-4-yl)thio)methyl)-3,4-dihydroquinazolin-7-yl)oxy)methyl)piperidin-1-yl)methyl)piperidin-1-yl)phenyl)amino)piperidine-2,6-dione]"
6,< 30,O=C1CCC(Nc2ccc(N3CC(N4CCC(N5CCC(COc6cc(F)c7c(=O)[nH]c(CSC8CCOCC8)nc7c6)CC5)CC4)C3)c(F)c2)C(=O)N1 (centres unmarked) [Example 145]
7,< 30,"O=C1CCC(Nc2ccc(N3CCC(N4CC(N5CCC(COc6cc(F)c7c(=O)[nH]c(CCC8CCOCC8)nc7c6)CC5)C4)CC3)c(F)c2)C(=O)N1 (centres unmarked) [Example 146, 3-((3-fluoro-4-(4-(3-(4-(((5-fluoro-4-oxo-2-(2-(tetrahydro-2H-pyran-4-yl)ethyl)-3,4-dihydroquinazolin-7-yl)oxy)methyl)piperidin-1-yl)azetidin-1-yl)piperidin-1-yl)phenyl)amino)piperidine-2,6-dione formate]"
8,< 30,"O=C1CCC(Nc2ccc(N3CC(N4CC(N5CCC(COc6cc(F)c7c(=O)[nH]c(CSC8CCOCC8)nc7c6)CC5)C4)C3)c(F)c2)C(=O)N1 (centres unmarked) [Example 148, 3-((3-fluoro-4-(3-(4-(((5-fluoro-4-oxo-2-(((tetrahydro-2H-pyran-4-yl)thio)methyl)-3,4-dihydroquinazolin-7-yl)oxy)methyl)piperidin-1-yl)-[1,3′-biazetidin]-1′-yl)phenyl)amino)piperidine-2,6-dione formate]"
9,< 30,"O=C1CCC(NC(=O)c2ccc(N3CCC(N4CCC(COc5cc(F)c6c(=O)[nH]c(CSC7CCOCC7)nc6c5)CC4)CC3)cc2F)C(=O)N1 (centres unmarked) [Example 149, N-(2,6-dioxopiperidin-3-yl)-2-fluoro-4-(4-(((5-fluoro-4-oxo-2-(((tetrahydro-2H-pyran-4-yl)thio)methyl)-3,4-dihydroquinazolin-7-yl)oxy)methyl)-[1,4′-bipiperidin]-1′-yl)benzamide]"
10,< 30,"O=C1CCC(Nc2ccc(N3CCC(C(=O)N4CC(N5CCC(COc6cc(F)c7c(=O)[nH]c(CSC8CCOCC8)nc7c6)CC5)C4)CC3)c(F)c2)C(=O)N1 (centres unmarked) [Example 152, 3-((3-fluoro-4-(4-(3-(4-(((5-fluoro-4-oxo-2-(((tetrahydro-2H-pyran-4-yl)thio)methyl)-3,4-dihydroquinazolin-7-yl)oxy)methyl)piperidin-1-yl)azetidine-1-carbonyl)piperidin-1-yl)phenyl)amino)piperidine-2,6-dione formate]"

# Continued, compound first:
row,Structure (SMILES),DC50 [nM]
1,"O=C1CCC(Nc2ccc(N3CC(N4CCN(CCOc5cc(F)c6c(=O)[nH]c(CSC7CCOCC7)nc6c5)CC4)C3)cc2)C(=O)N1 (centres unmarked) [Example 130, 3-((4-(3-(4-(2-((5-fluoro-4-oxo-2-(((tetrahydro-2H-pyran-4-yl)thio)methyl)-3,4-dihydroquinazolin-7-yl)oxy)ethyl)piperazin-1-yl)azetidin-1-yl)phenyl)amino)piperidine-2,6-dione]",< 30
2,"[2H]C1([2H])N(CCN2CCC(COc3cc(F)c4c(=O)[nH]c(CSC5CCOCC5)nc4c3)CC2)C([2H])([2H])C([2H])([2H])N(c2ccc(NC3CCC(=O)NC3=O)cc2)C1([2H])[2H] (centres unmarked) [Example 131, 3-((4-(4-(2-(4-(((5-fluoro-4-oxo-2-(((tetrahydro-2H-pyran-4-yl)thio)methyl)-3,4-dihydroquinazolin-7-yl)oxy)methyl)piperidin-1-yl)ethyl)piperazin-1-yl-2,2,3,3,5,5,6,6-d8)phenyl)amino)piperidine-2,6-dione]",< 30
3,O=C1CCC(Nc2ccc(-c3ccc(CCN4CCC(COc5cc(F)c6c(=O)[nH]c(CSC7CCOCC7)nc6c5)CC4)cn3)cc2)C(=O)N1 (centres unmarked) [Example 132],< 30
4,O=C1CCC(Nc2ccc(-c3ccc(CCN4CCC(COc5cc(F)c6c(=O)[nH]c(CSC7CCOCC7)nc6c5)CC4)nc3)cc2)C(=O)N1 (centres unmarked) [Example 133],< 30
5,"O=C1CCC(NC(=O)C23CC(N4CCN(CCN5CCC(COc6cc(F)c7c(=O)[nH]c(CSC8CCOCC8)nc7c6)CC5)CC4)(C2)C3)C(=O)N1 (centres unmarked) [Example 134, N-(2,6-dioxopiperidin-3-yl)-3-(4-(2-(4-(((5-fluoro-4-oxo-2-(((tetrahydro-2H-pyran-4-yl)thio)methyl)-3,4-dihydroquinazolin-7-yl)oxy)methyl)piperidin-1-yl)ethyl)piperazin-1-yl)bicyclo[1.1.1]pentane-1-carboxamide]",< 30
6,O=C1CCC(Nc2ccc(N3CCN(CCN4CCC(COc5cc(F)c6c(=O)[nH]c(CSC7CCOCC7)nc6c5)CC4)CC3)c(Cl)c2)C(=O)N1 (centres unmarked) [Example 137],< 30
7,O=C1CCC(Nc2ccc(N3CC4(CCC(N5CCC(COc6cc(F)c7c(=O)[nH]c(CSC8CCOCC8)nc7c6)CC5)CC4)C3)cc2)C(=O)N1 (centres unmarked) [Example 138],< 30
8,COc1cc(N2CCC(N3CC(N4CCC(COc5cc(F)c6c(=O)[nH]c(CSC7CCOCC7)nc6c5)CC4)C3)CC2)c(F)cc1NC1CCC(=O)NC1=O (centres unmarked) [Example 139],< 30
9,COc1cc(N2CCN(CCN3CCC(COc4cc(F)c5c(=O)[nH]c(CSC6CCOCC6)nc5c4)CC3)CC2)c(F)cc1NC1CCC(=O)NC1=O (centres unmarked) [Example 140],< 30
10,O=C1CCC(Nc2cc(F)c(N3CCN(CCN4CCC(COc5cc(F)c6c(=O)[nH]c(CSC7CCOCC7)nc6c5)CC4)CC3)cc2F)C(=O)N1 (centres unmarked) [Example 141],< 30
11,"CN(c1ccc(NC2CCC(=O)NC2=O)cc1F)C1CC(CN2CCC(COc3cc(F)c4c(=O)[nH]c(CSC5CCOCC5)nc4c3)CC2)C1 (centres unmarked) [Example 147, 3-((3-fluoro-4-((3-((4-(((5-fluoro-4-oxo-2-(((tetrahydro-2H-pyran-4-yl)thio)methyl)-3,4-dihydroquinazolin-7-yl)oxy)methyl)piperidin-1-yl)methyl)cyclobutyl)(methyl)amino)phenyl)amino)piperidine-2,6-dione]",< 30
12,"O=C1CCC(Nc2ccc(NC3CC(CN4CCC(COc5cc(F)c6c(=O)[nH]c(CSC7CCOCC7)nc6c5)CC4)C3)c(F)c2)C(=O)N1 (centres unmarked) [Example 150, 3-((3-fluoro-4-((3-((4-(((5-fluoro-4-oxo-2-(((tetrahydro-2H-pyran-4-yl)thio)methyl)-3,4-dihydroquinazolin-7-yl)oxy)methyl)piperidin-1-yl)methyl)cyclobutyl)amino)phenyl)amino)piperidine-2,6-dione formate]",< 30
13,"O=C1CCC(NC(=O)c2ccc(N3CCC(N4CC(N5CCC(COc6cc(F)c7c(=O)[nH]c(CSC8CCOCC8)nc7c6)CC5)C4)CC3)cc2F)C(=O)N1 (centres unmarked) [Example 151, N-(2,6-dioxopiperidin-3-yl)-2-fluoro-4-(4-(3-(4-(((5-fluoro-4-oxo-2-(((tetrahydro-2H-pyran-4-yl)thio)methyl)-3,4-dihydroquinazolin-7-yl)oxy)methyl)piperidin-1-yl)azetidin-1-yl)piperidin-1-yl)benzamide]",< 30
